Experimental data taken from patent US20160060235A1, “Therapeutic Agent for Type 2 Diabetes” (NATIONAL UNIVERSITY CORPORATION KUMAMOTO UNIVERSITY, priority 2013, published 2016).

How the values were obtained:
[1] = system: pancreatic β cell-specific Cdkal1-deficient mouse; experiment: Glucose tolerance after long-term (14 days) administration; format: in vivo; conditions: 1 mg/kg transabdominally once a day over 14 days, glucose 1 g/kg 36 hours after last dose; versus DMSO administration group
Description: Each low-molecular compound found positive in the screening was transabdominally injected once a day over 14 days at a dose of 1 mg/kg to a pancreatic β cell-specific Cdkal1-deficient mouse. A Cdkal1-deficient mouse was prepared as a control by the injection of saline containing DMSO. Finally, glucose was transabdominally injected at a dose of 1 g/kg to all of the mice 36 hours after the administration of the low-molecular compound. Blood was collected (5 μL) from the tail vein every 15 minutes from immediately after the administration of glucose. The blood glucose level in the mouse blood was measured using Accu-Chek AVIVA Nano (manufactured by F. Hoffmann-La Roche, Ltd.). The statistical test was conducted by repeated measure of two-way ANOVA.

[2] = system: pancreatic β cell-specific Cdkal1-deficient mouse; experiment: Tertiary screening: glucose tolerance after single administration; format: in vivo; conditions: 1 mg/kg transabdominally, glucose 1 g/kg after 30 minutes, versus saline administration group
Description: A pancreatic β cell-specific Cdkal1-deficient mouse and a wild-type mouse were each fasted overnight. Then, eperisone was transabdominally injected at a dose of 1 mg/kg to each mouse. Each control individual was prepared by the transabdominal injection of saline to each of a pancreatic β cell-specific Cdkal1-deficient mouse and a wild-type mouse. After 30 minutes, glucose was transabdominally injected at a dose of 1 g/kg to all of these mice. Blood was collected (5 μL) every 15 minutes from immediately after the administration of glucose. The blood glucose level in the mouse blood was measured using Accu-Chek AVIVA Nano (manufactured by F. Hoffmann-La Roche, Ltd.). The statistical test was conducted by repeated measure of two-way ANOVA.

[3] = system: islet of Langerhans isolated from a pancreatic β cell-specific Cdkal1-deficient mouse; experiment: Secondary screening: insulin secretion experiment by glucose stimulation; format: cell-based; parameters: insulin secretion under low-concentration (2.8 mM) and high-concentration (16.7 mM) glucose stimulation / concentration of insulin secreted into the Ringer solution: unit of the concentration uncertain
Text: The islet of Langerhans was isolated from a pancreatic β cell-specific Cdkal1-deficient mouse (see non-patent document 11) according to the literature (Gotoh M., et al., Transplantation, 1987, 43 (5), p. 725-730). The chest of the mouse was opened under ether anesthesia, and the common bile duct was peeled off. The pancreas swollen by the gradual injection of a collagenase solution (320 U/mL, manufactured by Sigma-Aldrich Corp.) was excised. The pancreas containing collagenase was digested for 30 minutes in a water bath of 37° C. and then dispersed with a pipette. The islet of Langerhans was isolated using a concentration gradient of a Ficoll solution (manufactured by Amersham Pharmacia Biotech Inc.). The islet of Langerhans was incubated for 30 minutes while kept at 37° C. in a Ringer solution (119 mM sodium chloride, 4.74 mM potassium chloride, 1.19 mM monosodium dihydrogen phosphate, 25 mM sodium bicarbonate, 10 mM HEPES, 2.54 mM calcium chloride, 1.19 mM magnesium chloride, and 0.2% BSA) saturated with a mixed gas of 95% O2 and 5% CO2.
Each low-molecular compound found positive in the primary screening was dissolved in DMSO, and this solution was added at a final concentration of 10 mM to a Ringer solution containing glucose to prepare a Ringer solution. A Ringer solution supplemented only with DMSO was prepared as a control.
The isolated mouse islet of Langerhans was first cultured for 30 minutes in a Ringer solution containing a low concentration (2.8 mM) of glucose. Then, the Ringer solution was replaced with a Ringer solution containing the low-molecular compound and the low concentration of glucose. After 30 minutes, the Ringer solution was recovered, and a Ringer solution containing the low-molecular compound and a high concentration (16.7 mM) of glucose was subsequently added thereto. After 30 minutes, the Ringer solution was recovered. The amount of insulin released into the Ringer solution was detected using an insulin detection kit (Libs Insulin-Mouse (S type), manufactured by Shibayagi Co., Ltd) according to the protocol of the kit.

[4] = system: E. coli harboring pACYCDuet-1-Phe; experiment: Primary screening: dual luciferase assay of translation accuracy (frameshift mistranslation reporter); format: cell-based; conditions: versus DMSO control; for relative translation accuracy with the translation accuracy of the control defined as 1: compound at final concentration of 10 μM, shake culture 1 hour; for improvement of translation accuracy as compared with the control (in words): existing therapeutic agents for diabetes, 10 μM
Text: The vector map of the prepared plasmid pACYCDuet-1-Phe (SEQ ID NO: 1) is shown in the left diagram of FIG. 1. The phenylalanine codon TTT was designed as NNN. When translation takes place according to the normal reading frame, the stop codon TAA appears immediately after TTT so that the sequence is not translated into firefly luciferase. On the other hand, if mistranslation occurs in TTT so as to skip one T, the stop codon is circumvented so that the sequence is correctly translated into firefly luciferase. This means that the higher the accuracy of translation is, the lower the fluorescence intensity of firefly luciferase is.
Renilla luciferase gene is also cloned into this plasmid as a control.
The E. coli harboring pACYCDuet-1-Phe was cultured overnight at 37° C. using 100 mL of a culture medium. After confirmation that OD550 reached 0.4 to 1, 1 mL of the culture medium was dispensed, and each low-molecular compound was added thereto at a final concentration of 10 μM. After shake culture for 1 hour, the E. coli was recovered and lysed by suspension in 10 mM Tris-HCl (pH 7.4), 1 mM magnesium chloride, and 0.1 mg/mL lysozyme (manufactured by Wako Pure Chemical Industries, Ltd.).
The activity of the firefly luciferase and the Renilla luciferase was measured using Dual-Luciferase Reporter Assay System (manufactured by Promega Corp.). To 5 μL of the E. coli lysate, 50 μL of an assay solution for the firefly luciferase was added for the measurement. Then, 50 μL of an assay solution for the Renilla luciferase was added thereto for the measurement. An E. coli lysate supplemented only with DMSO was prepared as a control.
The luminescence intensity of the firefly luciferase was corrected against that of the Renilla luciferase by use of the equation given below. This series of experimental approaches is plotted in FIG. 1.
Relative luminescence intensity=Firefly luciferase/Renilla luciferase
Relative translation accuracy=Relative luminescence intensity (from the addition of only DMSO)/Relative luminescence intensity (in the presence of the compound)

Row | Molecule | blood glucose level after glucose administration [1] | relative translation accuracy with the translation accuracy of the control defined as 1 [4] | improvement of translation accuracy as compared with the control (in words) [4] | further results
1 | CCc1ccc(C(=O)C(C)CN2CCCCC2)cc1 (stereo not shown) [eperisone] | significantly decreased blood glucose level | – | – | blood glucose level after glucose administration [2]: significantly decreased blood glucose level; insulin secretion under low-concentration (2.8 mM) and high-concentration (16.7 mM) glucose stimulation ([3]; compound at final concentration of 10 (unit uncertain) in Ringer solution, 30 minutes each): accelerate insulin secretion only under the high-concentration glucose stimulation; relative amount of insulin secreted compared with glibenclamide ([3]; high-concentration (16.7 mM) glucose stimulation, glibenclamide defined as 1): accelerate insulin secretion more highly than glibenclamide
2 | CNCCC(Oc1ccc(C(F)(F)F)cc1)c1ccccc1 (stereo not shown) [fluoxetine] | significantly decreased blood glucose level | approximately 1.5 times | – | concentration of insulin secreted into the Ringer solution ([3]; low-concentration (2.8 mM) glucose stimulation, compound at final concentration of 10 (unit uncertain)): significantly improve insulin secretion
3 | COc1ccc(Cl)cc1C(=O)NCCc1ccc(S(=O)(=O)NC(=O)NC2CCCCC2)cc1 [glibenclamide] | – | – | none of the existing therapeutic agents for diabetes were shown to significantly improve translation accuracy | –
4 | CN(C)C(=N)N=C(N)N [metformin] | – | – | none of the existing therapeutic agents for diabetes were shown to significantly improve translation accuracy | –
5 | elvitegravir | – | approximately 8 times | – | –
